Experimental data reported in patent US7790762B2, “Compounds and methods for thiol-containing compound efflux and cancer treatment” (National Jewish Health, priority 2002, dated 2010).
Marks after values point to notes of the source that are not given here.

What was measured:
[1] = system: epithelial cells; assay: Effects of compounds on extracellular GSH transport (Table 3); assay type: cell-based
[2] = system: A549 cells; assay: Intracellular GSH levels by HPLC-EC in A549 cells; assay type: cell-based, human; settings: for activity at 50 µM: A549, 50 μM
Method: (§1) Cell lines and culture conditions. Human lung epithelial cancer (A549), human leukemia HL-60 and human prostate (PC-3) tumor cells were purchased from ATCC (Manassas, Va.). A549 and PC-3 cells were grown in Ham's F12 medium (F12) and Kaighn's modification of Ham's F12 medium (F12K) with 2 mM L-glutamine (ATCC), respectively, supplemented with 10% fetal bovine serum (FBS) and 5% pen/strep (10,000 unit, Cellgro). HL-60 cells were grown in Iscove's modified Dulbecco's medium with 4 mM L-glutamine (ATCC) supplemented with 20% FBS and 5% pen/strep. Cell were grown in T-75 flask at 37° C. and 5% CO2 air atmosphere and in 24-well plates for GSH levels and LDH release measurements.
(§2) Intracellular levels of GSH. Intracellular GSH levels can be determined by HPLC-EC. Cultured cells from 24-well plates were washed once with 1 ml of PBS and then re-suspended in 0.5 ml of distilled water with 40 μM of digitonin (2 mM stock solution in DMSO) for 30 min at room temperature. Then, 50 μl of 10% meta-phosphoric acid were added (1% final concentration), the samples were sonicated for 2 min, centrifuged at 20,000 g for 10 min, and 0.2 ml of supernatant placed in vials for HPLC analysis. […] The flow rate was […]. The retention time for GSH in these conditions was 7.5 min. The HPLC instrument was from ESA, Inc. (Chelmsford, Mass.), equipped with an autosampler (model 540) and a Coul array detector (model 5600A). The potential applied was +0.75 V vs. H/Pd electrode, and the injection volume 5 μl.

[3] = system: PC-3 cells; assay: Cytotoxicity as LDH release in PC-3 cells; assay type: cell-based, human; settings: PC-3, 50 μM, 48 hours treatment; for LDH release, % of control at 50 µM: Homo sapiens, read-out: LDH rel. % con.
Method: as §1
(§3) Assessment of cytotoxicity. In one exemplary method, membrane integrity of A549, HL-60 and PC-3 cells was used as an index of drug-induced cytotoxicity, and was assessed by monitoring the release of cytosolic lactate dehydrogenase (LDH). LDH activity was measured in the culture medium and cell lysates (50 mM HEPES, Triton X-100 0.5%, pH 7) using a plate reader format as previously described (41). Briefly, 5 μl of cell culture supernatant and lysates were incubated with 0.24 mM NADH in a Tris/NaCl pH 7.2 buffer in 96-well plates for 5 min at 25° C. The reaction was started by the addition of 9.8 mM pyruvate and the consumption of NADH followed at 340 nm for 5 min at 30° C. Percent LDH release was calculated by the following: (supernatant LDH/supernatant LDH+lysate LDH)×100.

[4] = system: A549 cells; assay: Cytotoxicity as LDH release in A549 cells; assay type: cell-based, human; settings: for LDH rel. % con. / LDH release, % of control at 75 µM: A549, 75 μM; for LDH rel. % con. / LDH release, % of control at 50 µM / LDH release, % of control at 75 µM: 48 hours treatment; for LDH release, % of control at 50 µM / LDH release, % of control at 75 µM: Homo sapiens, read-out: LDH rel. % con.; for LDH release, % of control at 50 µM: A549, 50 μM
Method: as §1, §3

[5] = system: HL-60 cells; assay: Cytotoxicity as LDH release in HL-60 cells; assay type: cell-based, human; settings: for LDH rel. % con. / LDH release, % of control at 25 µM / LDH release, % of control at 50 µM: 48 hours treatment; for LDH release, % of control at 25 µM / LDH release, % of control at 50 µM: Homo sapiens, read-out: LDH rel. % con.
Method: as §1, §3

[6] = system: HL-60 cells; assay: Intracellular GSH levels by HPLC-EC in HL-60 cells; assay type: cell-based, human; settings: for effect on intracellular GSH (words): HL-60 cells
Method: as §1, §2

[7] = system: PC-3 cells; assay: Intracellular GSH levels by HPLC-EC in PC-3 cells; assay type: cell-based, human; settings: 24 hours treatment; for activity at 25 µM / activity at 50 µM: Homo sapiens, read-out: Int. GSH % con.; for activity at 25 µM / Int. GSH % con.: PC-3, 25 μM; for activity at 50 µM: PC-3, 50 μM
Method: as §1, §2

[8] = system: HL-60 cells; assay: Cellular superoxide by flow cytometry with hydroethidine in HL-60 cells; assay type: cell-based, human; settings: HL-60 cells, pre-treated 30 μM for 2 hours (FIG. 21B)
Method: Flow cytometry. In one exemplary method, cellular superoxide (O2^−) was measured by flow cytometry analysis using hydroethidine (HE) (30). Untreated and treated HL-60 cells (approximately 10^6) were exposed to HE (1 μM from 1 mM stock solutions in DMSO) for 30 min, then were centrifuged at 3,500 g for 15 min, and washed once with 1 ml ice-cold PBS. Cells were re-suspended in 0.5 ml ice-cold PBS, and HE oxidation product, i.e., ethidium bromide (EB), analyzed within 30 min using the red channel (PE) of a FACSCalibur flow cytometer from Becton Dickinson Biosciences (San Jose, Calif.). The total number of cell counts was 25,000.

[9] = Epithelial cell, 100 μM, read-out: % Increase Over Control (extracellular GSH)
[10] = Epithelial cell, read-out: % Increase Over Control (extracellular GSH)
[11] = Homo sapiens, 24 hours treatment, read-out: Int. GSH % con.
[12] = Homo sapiens, HL-60, 25 μM, 24 hours treatment, read-out: Int. GSH % con.
[13] = A549, 25 μM, 24 hours treatment
[14] = HL-60, 50 μM, 24 hours treatment
[15] = HL-60, 25 μM, 24 hours treatment

Nc1ccc(C(=O)O)c(O)c1 [p-Aminosalicylic Acid, 4-amino-2-hydroxybenzoic acid, reference compound]
activation at 100 µM [1, 9]: 414%

C[C@@H]1O[C@@H](OC[C@H]2O[C@@H](Oc3c(-c4ccc(O)c(O)c4)oc4cc(O)cc(O)c4c3=O)[C@H](O)[C@@H](O)[C@@H]2O)[C@H](O)[C@H](O)[C@H]1O [Rutin]
Int. GSH % con. ([2]; A549, 75 μM, 24 hours treatment): 86 % con.
LDH rel. % con. [3]: 95 % con.
LDH rel. % con. [4]: 187 % con.
% Increase Over Control (extracellular GSH) ([1]; 100 μM): 160 ^b %
LDH rel. % con. ([5]; HL-60, 50 μM): 98 % con.
Int. GSH % con. ([6]; HL-60, 75 μM, 24 hours treatment): 98 % con.

COc1ccccc1C(=O)O [Methylsalicylic Acid]
activation at 100 µM [1, 9]: 169%

CCCOC(=O)c1cc(O)c(O)c(O)c1 [Propyl Gallate, 3,4,5-trihydroxy-benzoic acid propyl ester]
activation at 50 µM [1, 10]: 136%

O=C(O)c1cc(S(=O)(=O)O)ccc1O [5-Sulfosalicylic Acid]
activation at 50 µM [1, 10]: 142%

COc1ccc([C@@H]2Sc3ccccc3N(CCN(C)C)C(=O)[C@@H]2OC(C)=O)cc1 [Diltiazem, reference compound]
activation at 100 µM [1, 9]: 119%

COc1ccc(CCN(C)CCCC(C#N)(c2ccc(OC)c(OC)c2)C(C)C)cc1OC (racemic) [Verapamil, (±)-verapamil, reference compound]
activity at 50 µM [2, 11]: 14%
LDH release, % of control at 50 µM [3]: 93%
LDH release, % of control at 50 µM [4]: 130%
activation at 10 µM ([1]; Epithelial cell, 10 μM, read-out: % Increase Over Control (extracellular GSH)): 113%
LDH release, % of control at 25 µM ([5]; HL-60, 25 μM): 125%
activity at 25 µM [7]: 72%
activity at 25 µM [6, 12]: 63%

C=C(C)[C@H]1Cc2c(ccc3c2O[C@@H]2COc4cc(OC)c(OC)cc4[C@@H]2C3=O)O1 [Rotenone, reference compound]
activity at 50 µM [2, 11]: 53%
LDH release, % of control at 50 µM [3]: 180%
LDH release, % of control at 75 µM [4]: 170%
LDH release, % of control at 25 µM ([5]; HL-60, 25 μM): 421%
activity at 25 µM [7]: 74%
effect on intracellular GSH (words) [6]: relatively effective for depleting GSH
activity at 25 µM [6, 12]: < 5%

O=c1c(O)c(-c2ccc(O)cc2)oc2cc(O)cc(O)c12 [Kaempferol, 3,5,7,4′quadrahydroxyflavone]
Intracellular GSH levels, % compared to control ([2]; A549, 25 μM, 4 h): 29.6 ± 0.9%
Int. GSH % con. [2, 13]: 7 % con.
LDH rel. % con. [3]: 115 % con.
LDH rel. % con. [4]: 173 % con.
LDH rel. % con. ([5]; HL-60, 50 μM): 128 % con.
Int. GSH % con. [7]: 77 % con.
Int. GSH % con. [6, 14]: 75 % con.

COc1cc([C@@H]2c3cc4c(cc3[C@@H](O[C@@H]3O[C@@H]5CO[C@@H](C)O[C@H]5[C@H](O)[C@H]3O)[C@H]3COC(=O)[C@H]23)OCO4)cc(OC)c1O [Etoposide, reference compound]
activity at 50 µM [2, 11]: 55%
LDH release, % of control at 50 µM [3]: 124%
LDH release, % of control at 50 µM [4]: 294%
toxicity ([5]; HL-60 cells): toxic
LDH release, % of control at 25 µM ([5]; HL-60, 25 μM): 290%
activity at 25 µM [7]: 83%
effect on intracellular GSH (words) [6]: relatively effective for depleting GSH
activity at 25 µM [6, 12]: 7%

O=C(/C=C/c1ccccc1)c1cc(O)ccc1O [2′,5′-DHC, 2′ 5′ dihydroxychalcone]
Intracellular GSH levels, % compared to control ([2]; A549, 25 μM, 2 h): <5%
Intracellular GSH levels, % compared to control ([2]; A549, 25 μM, 4 h): <5%
Int. GSH % con. [2, 13]: <5 % con.
LDH rel. % con. [3]: 246 % con.
LDH rel. % con. [4]: 273 % con.
effect on the toxicities of rotenone (50 μM), curcumin (50 μM) and 2-ME (50 μM) ([4]; A549 cells, 48 hours, compound 10 μM (FIG. 20D)): potentiated
LDH rel. % con. ([5]; HL-60, 50 μM): 310 % con.
Int. GSH % con. [7]: 67 % con.
Int. GSH % con. [6, 15]: <5 % con.

C[C@]12CC[C@@H]3c4cc(O)c(O)cc4CC[C@H]3[C@@H]1CC[C@@H]2O [2-HE, 2-hydroxyestradiol, reference compound]
Intracellular GSH levels, % compared to control ([2]; A549, 25 μM, 2 h): 69.0 ± 0.5%
Int. GSH % con. [2, 13]: <5 % con.
LDH rel. % con. [3]: 113 % con.
LDH rel. % con. [4]: 150 % con.
LDH rel. % con. ([5]; HL-60, 25 μM): 250 % con.
Int. GSH % con. [7]: 228 % con.
Int. GSH % con. [6, 15]: 120 % con.

COc1ccc2cc3[n+](cc2c1OC)CCc1cc2c(cc1-3)OCO2 [Berberine]
activation at 100 µM [1, 9]: 170%

CC[n+]1ccccc1-c1c2nc(c(-c3cccc[n+]3CC)c3ccc([n-]3)c(-c3cccc[n+]3CC)c3nc(c(-c4cccc[n+]4CC)c4ccc1[n-]4)C=C3)C=C2.[Mn+3] [MnTE-2-PyP, Manganese(III) meso-tetrakis(N-ethylpyridinium-2-yl)porphyrin, reference compound]
O2^− levels induced by curcumin after pre-treatment [8]: lower levels of O2^− were detected
effect on the toxicity of curcumin (25 μM), LDH release ([5]; HL-60 cells, 48 hours, compound 25 μM (FIG. 20A)): attenuated

O=c1c(O)c(-c2ccc(O)c(O)c2)oc2cc(O)cc(O)c12 [Quercetin]
Intracellular GSH levels, % compared to control ([2]; A549, 25 μM, 4 h): 51.0 ± 0.7%
Int. GSH % con. [2, 13]: 36 % con.
LDH rel. % con. [3]: 80 % con.
LDH rel. % con. [4]: 175 % con.
LDH rel. % con. ([5]; HL-60, 50 μM): 157 % con.
Int. GSH % con. [7]: 95 % con.
Int. GSH % con. [6, 14]: 94 % con.

O=C(O)c1cc(/N=N/c2ccc(S(=O)(=O)Nc3ccccn3)cc2)ccc1O [Sulfasalazine, reference compound]
activation at 50 µM [1, 10]: 211%

Oc1cc(O)c2cc(O)c(-c3ccc(O)c(O)c3)[o+]c2c1 [Cyanidin]
activity at 75 µM ([2]; Homo sapiens, A549, 75 μM, 24 hours treatment, read-out: Int. GSH % con.): 82%
LDH release, % of control at 50 µM [3]: 93%
LDH release, % of control at 75 µM [4]: 110%
LDH release, % of control at 50 µM ([5]; HL-60, 50 μM): 110%
activity at 50 µM [7]: 120%
activity at 75 µM ([6]; Homo sapiens, HL-60, 75 μM, 24 hours treatment, read-out: Int. GSH % con.): 95%

O=c1c(O)c(-c2ccc(O)c(O)c2)oc2cc(O)ccc12 [Fisetin]
activity at 50 µM [2, 11]: 50%
LDH release, % of control at 50 µM [3]: 109%
LDH release, % of control at 75 µM [4]: 267%
toxicity ([5]; HL-60 cells): toxic
LDH release, % of control at 50 µM ([5]; HL-60, 50 μM): 166%
activity at 50 µM [7]: 100%
effect on intracellular GSH (words) [6]: relatively effective for depleting GSH
activity at 50 µM ([6]; Homo sapiens, HL-60, 50 μM, 24 hours treatment, read-out: Int. GSH % con.): 16%
